Entries after “also recorded” stand apart in the source; their conditions may differ. No end group written: not given here.
System: combined collagen-adjuvant induced arthritis (calf type II collagen in combination with Freund's complete adjuvant)
Assay: Protective effect of peptide A on combined collagen-adjuvant induced arthritis in rats
Format: in vivo, SD rats
Conditions: for ankle joint swelling value: X±SD; for ankle joint swelling value / Lesion scoring ( X ± SD), joint lesion severity: n=10; for inhibition rate of ankle joint swelling: vs model group; for Lesion scoring ( X ± SD), joint lesion severity / state of joint synovial tissue (HE sections): 32nd day; for Lesion scoring ( X ± SD), joint lesion severity: left rear ankle joint histopathology, lower score = milder
From the text: SPF-level SD rats, each weighting 180 g˜220 g, with male and female each in half, provided by Experimental Animal Center of Chinese Academy of Military Medical.
Peptide with the following sequence is used: GQTYTSG (hereinafter referred to as peptide A), which is synthesized by solid phase peptide synthesis method using 413A automatic peptide synthesizer (available from Perkin Elmer Corporation), the detailed synthetic steps is described in Example 1 of PCT/CN2006/001176. The peptide was to be dissolved in physiological saline when used.
SD rats, with male and female each in half, were randomly divided into five groups with 10 rats in each group, respectively are model group (employing physiological saline, calf type II collagen and Freund's complete adjuvant); control group (employing the same volume of physiological saline as the model group); peptide A high, medium and low dose groups (employing calf type II collagen, Freund's complete adjuvant and peptide A, wherein each group is given different doses of peptide A, respectively are 174 μg/kg·d, 87 μg/kg·d and 43.5 μg/kg·d, peptide A is dissolved in physiological saline to form peptide A solution with desired concentration). Peptide A solution in each dose was administered by subcutaneous injection, 0.1 ml of peptide A solution per 100 g body weight of rats. The control group employed the same amount of physiological saline as that of the peptide A solution (0.1 ml of physiological saline per 100 g body weight of rats).
10 mg of calf type II collagen was dissolved into 5 ml 0.1 mol/L of acetic acid solution, and then the resulting solution was placed in a refrigerator at 4° C. overnight, the next day, the solution was mixed with Freund's complete adjuvant in a volume ratio of 1:1, the resulting mixture is sucked and discharged repeatedly by a syringe, until the mixture was emulsified into an emulsion completely. Each group rats were administered according to the following manner. These rats were normally fed every day during the administration.
On the 1st day, except the control group, for rats of other groups (the model group and the peptide A high, medium and low dose groups), 0.5 ml of the emulsion (prepared by calf type II collagen and Freund's complete adjuvant as above) was subcutaneously injected into the base of the tail of every rat, and the injection site is pressed slightly for 30 s so that the emulsion was completely absorbed. On the 8th day, emulsion injection is conducted again in the same way, 0.5 ml for every rat.
From the 2nd day (including this day), the rats of peptide A high, medium and low dose groups each were administered with corresponding dose of peptide A. Then, they were subcutaneously injected with corresponding dose of peptide A for one time every other day, a total of 15 times; at the same time, the rats of the control group and the model group were subcutaneously injected the same amount of physiological saline as that of peptide A for the high, medium and low dose groups every other day, a total of 15 times.
Measurement for the experimental results was conducted as follows. Firstly, before administration to rats of each group, left rear ankle circumference of each rat was measured by a flexible rule as a base value, and then circumference of left rear ankle with inflammation of each rat was measured at the 4th, 8th, 12th, 16th, 20th, 24th, 28th, and 32nd day, respectively. Swelling value obtained by circumference after inflammation minus circumference before inflammation was used to observe changes of primary and secondary inflammation of combined collagen-adjuvant induced rats.
Secondly, at the 32nd day, rats of each group were killed, and their left rear foot ankle joints ware quickly taken out, fixed in 10% formalin and then embedded in paraffin after decalcification, sectioned and stained with HE. […]

[1] = high dose 174 μg/kg·d s.c., the 4th day
[2] = high dose 174 μg/kg·d s.c., the 8th day
[3] = high dose 174 μg/kg·d s.c., the 12th day
[4] = high dose 174 μg/kg·d s.c., the 16th day
[5] = high dose 174 μg/kg·d s.c., the 20th day
[6] = high dose 174 μg/kg·d s.c., the 24th day
[7] = high dose 174 μg/kg·d s.c., the 28th day
[8] = high dose 174 μg/kg·d s.c., the 32nd day
[9] = low dose 43.5 μg/kg·d s.c., the 4th day
[10] = low dose 43.5 μg/kg·d s.c., the 8th day
[11] = low dose 43.5 μg/kg·d s.c., the 12th day
[12] = low dose 43.5 μg/kg·d s.c., the 16th day
[13] = low dose 43.5 μg/kg·d s.c., the 20th day
[14] = low dose 43.5 μg/kg·d s.c., the 24th day
[15] = low dose 43.5 μg/kg·d s.c., the 28th day
[16] = low dose 43.5 μg/kg·d s.c., the 32nd day
[17] = medium dose 87 μg/kg·d s.c., the 4th day
[18] = medium dose 87 μg/kg·d s.c., the 8th day
[19] = medium dose 87 μg/kg·d s.c., the 12th day
[20] = medium dose 87 μg/kg·d s.c., the 16th day
[21] = medium dose 87 μg/kg·d s.c., the 20th day
[22] = medium dose 87 μg/kg·d s.c., the 24th day
[23] = medium dose 87 μg/kg·d s.c., the 28th day
[24] = medium dose 87 μg/kg·d s.c., the 32nd day

## GQTYTSG [Peptide A]
All dose groups, effect in descending order high, medium, low
  arthritis lesion (histopathology) after administration: reduced in different degrees
[1]
  ankle joint swelling value: 7.3 ± 1.8 mm
  inhibition rate of ankle joint swelling: (20.6%)
[2]
  ankle joint swelling value: 8.2 ± 1.5 mm
  inhibition rate of ankle joint swelling: (34.4%)
[3]
  ankle joint swelling value: 9.5 ± 2.1 mm
  inhibition rate of ankle joint swelling: (30.1%)
[4]
  ankle joint swelling value: 9.8 ± 1.7 mm
  inhibition rate of ankle joint swelling: (35.5%)
[5]
  ankle joint swelling value: 10.2 ± 1.9 mm
  inhibition rate of ankle joint swelling: (41.4%)
[6]
  ankle joint swelling value: 10.5 ± 1.9 mm
  inhibition rate of ankle joint swelling: (44.1%)
[7]
  ankle joint swelling value: 11.4 ± 1.6 mm
  inhibition rate of ankle joint swelling: (38.7%)
[8]
  ankle joint swelling value: 12.0 ± 1.6 mm
  inhibition rate of ankle joint swelling: (30.6%)
High dose group (174 μg/kg·d s.c.)
  Lesion scoring ( X ± SD), joint lesion severity: 3.73 ± 1.57
High dose group (174 μg/kg·d)
  inhibition rate to the joint swelling: ~45%
High dose group, FIGS. 5a and 5b
  state of joint synovial tissue (HE sections): mild congestion of local synovial tissue of the rats, having no significant surface proliferation
high, medium and low dose groups, observation
  joint swelling compared with rats of the model group: significantly reduced joint swelling
high, medium and low dose groups, part of model rats had skin ulcers on the 24th day
  skin ulcer symptom: did not have skin ulcer symptom
[9]
  ankle joint swelling value: 8.8 ± 1.6 mm
  inhibition rate of ankle joint swelling: (4.3%)
[10]
  ankle joint swelling value: 10.2 ± 1.7 mm
  inhibition rate of ankle joint swelling: (18.4%)
[11]
  ankle joint swelling value: 11.2 ± 1.8 mm
  inhibition rate of ankle joint swelling: (17.6%)
[12]
  ankle joint swelling value: 12.3 ± 1.8 mm
  inhibition rate of ankle joint swelling: (19.1%)
[13]
  ankle joint swelling value: 13.4 ± 1.7 mm
  inhibition rate of ankle joint swelling: (23.0%)
[14]
  ankle joint swelling value: 14.6 ± 1.8 mm
  inhibition rate of ankle joint swelling: (22.3%)
[15]
  ankle joint swelling value: 14.8 ± 2.2 mm
  inhibition rate of ankle joint swelling: (20.4%)
[16]
  ankle joint swelling value: 14.5 ± 1.8 mm
  inhibition rate of ankle joint swelling: (16.2%)
Low dose group (43.5 μg/kg·d s.c.)
  Lesion scoring ( X ± SD), joint lesion severity: 4.36 ± 1.15
Low dose group, FIGS. 3a and 3b
  state of joint synovial tissue (HE sections): mild congestion and significant proliferation and surface projection of the synovial tissue, as well as mild degeneration of covering synovial cells
[17]
  ankle joint swelling value: 8.2 ± 1.5 mm
  inhibition rate of ankle joint swelling: (10.9%)
[18]
  ankle joint swelling value: 9.3 ± 2.2 mm
  inhibition rate of ankle joint swelling: (25.6%)
[19]
  ankle joint swelling value: 9.9 ± 1.8 mm
  inhibition rate of ankle joint swelling: (27.2%)
[20]
  ankle joint swelling value: 11.4 ± 1.6 mm
  inhibition rate of ankle joint swelling: (25.0%)
[21]
  ankle joint swelling value: 12.2 ± 1.7 mm
  inhibition rate of ankle joint swelling: (29.9%)
[22]
  ankle joint swelling value: 12.6 ± 2.1 mm
  inhibition rate of ankle joint swelling: (33.0%)
[23]
  ankle joint swelling value: 13.7 ± 1.8 mm
  inhibition rate of ankle joint swelling: (26.3%)
[24]
  ankle joint swelling value: 13.9 ± 1.7 mm
  inhibition rate of ankle joint swelling: (19.6%)
Medium dose group (87 μg/kg·d s.c.)
  Lesion scoring ( X ± SD), joint lesion severity: 4.12 ± 1.28
Medium dose group, FIGS. 4a and 4b
  state of joint synovial tissue (HE sections): mild congestion of local synovial tissue and infiltration of few inflammatory cells; also recorded: mild congestion, uneven surface and mild proliferation of the synovial tissue
